Paper PMC9259591, “Irigenin, a novel lead from Iris confusa for management of Helicobacter pylori infection with selective COX-2 and HpIMPDH inhibitory potential” (Scientific Reports, 2022)
Values after ≈ are worked out from the molar mass of the structure shown. Values joined by “and” are separate entries in the source; they are usually repeats but may differ in a detail not shown here. Identical values can stand only once. Like-named read-outs stand apart in the source and are kept apart here.

Key:
[1] = biological target: T1, human recombinant COX-2 (Homo sapiens, UniProt P35354); test: COX-2 inhibitory activity, colourimetric COX inhibitor screening assay kit; assay type: biochemical; details: for IC50: human recombinant COX-2; for SI (COX-1/COX-2): selectivity index calculated as IC50 (COX-1)/(COX-2)
T1 construct: purchased
T1 sequence (P35354 18-604): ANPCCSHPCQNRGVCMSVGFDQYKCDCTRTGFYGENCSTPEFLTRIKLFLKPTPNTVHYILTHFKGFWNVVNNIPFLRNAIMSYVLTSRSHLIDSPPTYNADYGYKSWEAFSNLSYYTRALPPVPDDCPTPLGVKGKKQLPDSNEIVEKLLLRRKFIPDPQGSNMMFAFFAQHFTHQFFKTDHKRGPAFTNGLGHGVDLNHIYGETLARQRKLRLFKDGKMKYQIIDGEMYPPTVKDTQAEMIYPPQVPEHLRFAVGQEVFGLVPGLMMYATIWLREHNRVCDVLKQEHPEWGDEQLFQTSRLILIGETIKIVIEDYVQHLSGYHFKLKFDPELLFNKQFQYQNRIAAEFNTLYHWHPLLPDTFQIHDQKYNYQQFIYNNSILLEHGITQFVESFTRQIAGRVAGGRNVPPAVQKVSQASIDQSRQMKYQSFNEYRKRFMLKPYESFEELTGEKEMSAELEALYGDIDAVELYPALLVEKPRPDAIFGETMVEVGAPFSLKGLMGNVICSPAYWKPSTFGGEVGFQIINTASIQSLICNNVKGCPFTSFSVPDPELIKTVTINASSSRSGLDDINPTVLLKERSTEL
Experimental: (§1) The inhibitory COX activity was assayed colourimetrically by examining the inhibition of the ovine COX-1 and human recombinant COX-2 enzymes as described by George et al.[38], using a COX inhibitor screening assay kit. The detailed procedures were described in the supplementary file.
(§2) The inhibitory COX activity was assayed colourimetrically by examining the inhibition of the ovine COX-1 and human recombinant COX-2 enzymes as described by George et al. ^2, using a COX inhibitory screening assay kit. This assay determines the COX peroxidase activity by monitoring the appearance of N,N,N',N'-tetramethyl-p-phenylenediamine (TMPD). Assay buffer (150 μL 0.1 M Tris–HCl pH 8.0), 10 μL heme and 10μL enzyme (COX-1 or COX-2) were added in each well. Ten μL of each tested sample concentration was added to each well and incubated for 15 minutes at 37°C. After incubation, 20 μL of TMPD was added to each well. For initiating the reaction, 10 μL 10 mM arachidonic acid was added and the plates were further incubated for another 2 minutes at 37°C. For terminating the reaction, 50 μL 1 N HCl and saturated stannous chloride were added.
(§3) Reaction mixture containing assay buffer and heme acted as the blank and a mixture with either COX-1 or COX-2 assay buffer and heme acted as the 100% initial activity (IA). […] The absorbances of oxidized TMPD (blue colour) were read in ELISA plate reader at 590 nm. The % inhibition was calculated using the following formula:
(§4) COX % Inhibition= [(100%IA−Inhibitor)/ 100% IA x 100]. Where, IA: 100% initial activity.
(§5) The concentration at which the tested sample produces 50% inhibition of COX-1 and/or COX-2 (IC50) was determined. The selectivity index (SI) was calculated also as IC50 (COX-1)/ (COX-2).

[2] = tested on: H. pylori ATCC 700392; test: anti-Helicobacter pylori activity, microwell dilution method with MTT; assay type: cell-based; details: for MIC: read-out: MIC (H. pylori); for MIC (H. pylori): ND = not detected
Experimental: The anti-Helicobacter pylori activity of the PF and NPF as well as the isolated compounds was evaluated against H. pylori ATCC 700392 (type strain, obtained from the American Type Culture Collection unit (ATCC), using microwell dilution method and clarithromycin as standard drug[37]. The detailed procedures were described in the supplementary file.
The anti-Helicobacter pylori activity of the PF and NPF as well as the isolated compounds was evaluated against H. pylori ATCC 700392 (a type strain, obtained from the American Type Culture Collection unit (ATCC), using microwell dilution method and clarithromycin as standard drug ^1. The tested samples were prepared in dimethyl sulfoxide and successive ten twofold dilutions (125- 0.24 µg/mL) were carried out in a 96-well plate. Each microplate well included forty μL of Brain Heart Infusion growth medium and 10% fetal bovine serum (FBS), ten μL of inoculum and fifty μL of the tested sample. The plates were incubated for 3 days, in 5% oxygen, 10% carbon dioxide, 85 % nitrogen atmosphere at 37°C. Forty μL of 3- (4, 5-dimethyl-thiazol-2-yl)- 2,5-diphenyl-tetrazolium bromide (MTT) at a final concentration of 0.5 mg/mL freshly prepared in H2O was added to each well and incubated for 30 min. The bacteria were biologically active when change to purple color was observed ^1. While no change in MTT color indicated inhibition. Solvent control (DMSO) and the standard antibiotic (clarithromycin) were used as negative and positive controls, respectively. The H. pylori inhibition % was calculated using the given formula:
% Inhibition = Abs control – Abs sample × 100 /Abs control.

[3] = biological target: T2, ovine COX-1 (Ovis aries, UniProt P05979); test: COX-1 inhibitory activity, colourimetric COX inhibitor screening assay kit; assay type: biochemical
T2 construct: purchased
T2 sequence (P05979 25-600): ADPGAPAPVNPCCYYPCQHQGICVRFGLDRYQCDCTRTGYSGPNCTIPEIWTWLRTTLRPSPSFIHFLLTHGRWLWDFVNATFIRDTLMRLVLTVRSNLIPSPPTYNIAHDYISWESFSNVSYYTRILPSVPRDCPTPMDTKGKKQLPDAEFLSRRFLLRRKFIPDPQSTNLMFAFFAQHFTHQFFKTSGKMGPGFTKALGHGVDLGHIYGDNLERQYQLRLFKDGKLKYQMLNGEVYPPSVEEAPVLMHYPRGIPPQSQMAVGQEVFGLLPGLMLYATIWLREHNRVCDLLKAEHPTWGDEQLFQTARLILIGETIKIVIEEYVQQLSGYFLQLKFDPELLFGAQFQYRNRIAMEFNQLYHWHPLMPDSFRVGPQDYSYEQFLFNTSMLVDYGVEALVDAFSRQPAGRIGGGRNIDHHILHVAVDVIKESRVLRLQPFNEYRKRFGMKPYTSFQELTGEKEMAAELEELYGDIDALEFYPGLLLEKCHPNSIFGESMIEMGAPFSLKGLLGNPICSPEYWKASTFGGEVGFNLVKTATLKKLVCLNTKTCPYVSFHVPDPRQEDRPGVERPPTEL
Experimental: as §1, §2, §3, §4, §5

[4] = tested on: RAW 264.7 macrophage cell line (NO); test: nitric oxide (NO) inhibitory activity in lipopolysaccharide-stimulated macrophages; assay type: cell-based, murine; details: Mus musculus, RAW264.7, RAW 264.7 cells, 1 µg/mL lipopolysaccharide
Experimental: The detailed procedures were described in the supplementary file.
The cell was incubated at 37 °C in 5% carbon dioxide. RAW 264.7 cells were seeded onto a 96-well plate (1×10^5 cells/well) and incubated for 24 h. […] Followed by incubation, the cells stimulated with 1µg/mL of lipopolysaccharide for another 24 h. The supernatant was gently transferred to new 96-well plates and used for NO determination. L-N 6 - (1-iminoethyl) lysine hydrochloride), is used as standard drug. The absorbance (Abs) was measured in a microplate reader at 540 nm ^3. The percentage inhibition was calculated using the following formula:
Inhibition (%) = 1-[Control-Test] Control × 100.

[5] = concentration required for 100% inhibition, H. pylori ATCC 700392

SMILES	IC50 ([1]; ND = not detected) [µM]	SI (COX-1/COX-2) [1]	MIC ([2]; Helicobacter pylori, ATCC700392)	MIC (H. pylori) [2, 5]	MIC [2, 5] [µM]	IC50 [3] [µM]	IC50 [4] [µM]	IC50 ([4]; ND = not detected) [µg/mL]	IC50 [1] [µM]	IC50 ([3]; ovine COX-1, read-out: IC50 (COX-1)) [µM]
COc1c(O)cc2occ(-c3ccc(O)cc3)c(=O)c2c1O [Tectorigenin (P4), 4′,5,7-trihydroxy-6-methoxyisoflavone]	189	2.16	15.6 µg/mL and 52 µM	15.63 µg/mL (≈ 52.1 µM)	52.05 (≈ 15.6 µg/mL)	407	> 416	> 125		
CC(C)[C@H]1CC[C@H]2[C@@]1(C)CC[C@@]1(C)[C@@H]3CC[C@H]4C(C)(C)[C@@H](O)CC[C@]4(C)C3=CC[C@]21C [Isoarborinol (N1), isoarborinol]		1.42		no H. pylori inhibitory potential			44.3 ± 1.7		51.8 ± 2.1	73.3 ± 1
